Earlier results in US7838281B2, “Sulfide bath” (Soothing Sulfur Spas, LLC, priority 2007, dated 2010).

Conditions: aqueous solution

SMILES	pK for the HCO3^−/CO2	pK for the HS^−/S^−2
O=C(O)O [HCO3^−]	6.2	
S [HS^−]		14
